In ChEMBL document CHEMBL5726187, “Pyrimido-pyridazinone compounds and methods of use thereof” (2019):

How the values were obtained:
[1] = target: Tyrosine-protein kinase SYK (Homo sapiens, UniProt P43405); assay: Inhibition of Enzymatic Syk Kinase Activity: 2.5 μL of 10% DMSO or compound in 10% DMSO was added to the wells in a 96 well V-bottom plate. Optimized concentration of in-house Syk enzyme (different batches of Syk (356-635) kinase domain) were used at optimized concentrations) ranging from 0.035 ng to 7.5 ng/reaction diluted in assay buffer was added to a total volume of 12.5 μL). Compound and protein were incubated for 30 minutes at room temperature on a plate shaker. Ten μL of a substrate mix containing 100 μM ATP (0.25 μL), γ-P32-ATP (0.1 μL; 10 μCi/μL), pG4T (0.25 μL; 10 mg/mL) and 1× assay buffer (9.4 μL) was added to all the wells. Samples were incubated at 30° C. for 10 minutes after mixing. The reaction was stopped by the addition of 8N HCl (13 μL) containing 100 mM ATP. Thirty μL of sample was transferred to the center of a 2×2 cm2 Whatman P81 chromatography paper. After allowing the sample to dry for one minute, the assay squares were washed 3 times for 5 minutes each in ortho-phosphoric acid (0.5%) and once in acetone. Assay squares were dried for 15 minutes in a 30° C. oven and transferred to 96 well optiplate. Microscint-O reagent (100 μL, Perkin Elmer) was added to each well, the plate was sealed with Topseal-A microplates and incubated for 10 minutes at room temperature at very low speed on rocker and the plate was read in the Topcount NXL instrument.
[2] = target: Tyrosine-protein kinase JAK2 (Homo sapiens, UniProt O60674); assay: Inhibition of Enzymatic JAK2 Kinase Activity: Two μL of 10% DMSO in blank, substrate control and positive control wells and 2 μL of test compound in test wells was added. Thirteen μL of assay buffer in blank and substrate control wells and 13 μL of Enzyme buffer mix in positive and test wells was added. The reaction mixture was incubated for 30 minutes at RT on a plate shaker. Ultra Light-pGT substrate (5 μL) [poly Glu-Tyr (4:1) labeled with U Light TM dye, a tyrosine kinase substrate] and ATP mix was added to all wells. The reaction plate was incubated for 60 minutes at RT on a plate shaker. The reaction was stopped by adding 40 mM EDTA (10 μL) in buffer. Ten μL of antibody was added to all the wells.
Sequence of Tyrosine-protein kinase JAK2 (O60674 whole entry): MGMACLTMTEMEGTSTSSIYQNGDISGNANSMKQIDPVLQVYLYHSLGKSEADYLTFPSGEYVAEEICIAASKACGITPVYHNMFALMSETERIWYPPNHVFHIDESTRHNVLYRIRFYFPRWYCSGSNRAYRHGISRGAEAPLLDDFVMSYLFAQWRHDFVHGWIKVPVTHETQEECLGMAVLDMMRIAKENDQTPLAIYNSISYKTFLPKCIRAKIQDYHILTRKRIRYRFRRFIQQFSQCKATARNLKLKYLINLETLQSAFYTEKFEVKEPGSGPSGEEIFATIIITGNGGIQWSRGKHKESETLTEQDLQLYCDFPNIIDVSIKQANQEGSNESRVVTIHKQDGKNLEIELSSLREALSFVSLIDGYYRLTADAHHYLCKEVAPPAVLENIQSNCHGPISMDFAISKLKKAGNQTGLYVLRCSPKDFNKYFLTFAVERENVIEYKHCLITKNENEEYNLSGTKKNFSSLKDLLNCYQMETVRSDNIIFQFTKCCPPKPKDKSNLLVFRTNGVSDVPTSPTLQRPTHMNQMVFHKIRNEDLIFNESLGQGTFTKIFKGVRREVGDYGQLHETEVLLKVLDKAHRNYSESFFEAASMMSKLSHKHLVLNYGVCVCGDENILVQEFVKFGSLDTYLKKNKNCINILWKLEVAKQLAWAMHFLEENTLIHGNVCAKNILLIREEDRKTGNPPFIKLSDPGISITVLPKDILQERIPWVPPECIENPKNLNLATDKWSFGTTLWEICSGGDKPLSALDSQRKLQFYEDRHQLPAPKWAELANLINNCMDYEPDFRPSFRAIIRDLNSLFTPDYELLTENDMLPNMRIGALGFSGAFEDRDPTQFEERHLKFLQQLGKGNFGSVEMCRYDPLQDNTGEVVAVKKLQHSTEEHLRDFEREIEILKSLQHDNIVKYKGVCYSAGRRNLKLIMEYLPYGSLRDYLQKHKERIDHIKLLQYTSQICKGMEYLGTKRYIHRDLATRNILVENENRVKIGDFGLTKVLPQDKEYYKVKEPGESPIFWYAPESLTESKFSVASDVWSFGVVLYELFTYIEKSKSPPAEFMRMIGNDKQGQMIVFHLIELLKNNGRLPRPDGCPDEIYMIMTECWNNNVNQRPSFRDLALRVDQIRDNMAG

SMILES | IC50 [1] | IC50 [2]
CC(C)(C#N)N1CCN(CCOc2ccc(Nc3nc(N4CCCCCC4)nc4cn[nH]c(=O)c34)cc2)CC1 | < 50 nM | < 50 nM
CC(C)(C(N)=O)N1CCN(c2ccc(Nc3nc(N4CCCCCC4)nc4cn[nH]c(=O)c34)cc2)CC1 | < 50 nM | < 10 nM
O=C(O)C1CC12CCC(c1ccc(Nc3nc(N4CCCCC4)nc4cn[nH]c(=O)c34)cc1)CC2 (stereo unspecified) | < 50 nM | < 50 nM
N#CCC1CCN(c2nc(Nc3ccc(F)cc3)c3c(=O)[nH]ncc3n2)CC1 | > 100 nM | 
O=C(O)C1CC12CCC(c1ccc(Nc3nc(NC4CCCCC4)nc4cn[nH]c(=O)c34)cc1)CC2 (stereo unspecified) | < 50 nM | < 50 nM
O=c1[nH]ncc2nc(N3CCCCCC3)nc(Nc3ccc(OCCN4CCCNCC4)cc3)c12 | < 50 nM | < 10 nM
O=C1CC2(CCN(c3nc(Nc4ccc(CN5CCNCC5)cc4)c4c(=O)[nH]ncc4n3)CC2)CC(=O)N1 | > 100 nM | 
CC(C)(O)C(=O)N1CCN(c2ccc(Nc3nc(N4CCC(CC#N)CC4)nc4cn[nH]c(=O)c34)cn2)CC1 | < 50 nM | < 50 nM
CN(c1nc(Nc2ccc(N3CCC4(CC3)CC4C(=O)O)cc2)c2c(=O)[nH]ncc2n1)C1CCCCC1 (stereo unspecified) | < 50 nM | < 10 nM
COc1cc(Nc2nc(N3CCCCCC3)nc3cn[nH]c(=O)c23)cc(OC)c1 | > 100 nM | 
N#CCC1CCN(c2nc(Nc3ccc(N4CCC(F)(F)CC4)cc3)c3c(=O)[nH]ncc3n2)CC1 | < 50 nM | < 10 nM

Continued, values first:

IC50 [1] | IC50 [2] | SMILES
< 50 nM | < 10 nM | CC(C)(Oc1ccc(Nc2nc(N3CCCCCC3)nc3cn[nH]c(=O)c23)cc1)C(=O)O
< 100 nM | < 100 nM | COc1ccc(-c2nc(Nc3ccc(N4CCC5(CC4)CC5C(=O)O)cc3)c3c(=O)[nH]ncc3n2)cc1 (stereo unspecified)
< 100 nM | < 50 nM | O=C(O)C1CC12CCN(c1ccc(Nc3nc(-c4ccc(F)cc4)nc4cn[nH]c(=O)c34)cc1)CC2 (stereo unspecified)
< 50 nM | < 10 nM | CC1CC(C)CN(c2nc(Nc3ccc(N4CCC(CC(=O)O)CC4)cc3)c3c(=O)[nH]ncc3n2)C1 (stereo unspecified)
< 50 nM |  | O=c1[nH]ncc2nc(N3CCCCCC3)nc(Nc3ccc(OCCN4CCNCC4)cc3)c12
< 50 nM | < 50 nM | O=c1[nH]ncc2nc(N3CCCCC3)nc(Nc3ccc(OCCN4CCCNCC4)cc3)c12
< 50 nM | < 50 nM | CC(C)(CO)Oc1ccc(Nc2nc(N3CCC(CC#N)CC3)nc3cn[nH]c(=O)c23)cc1
< 10 nM | < 10 nM | O=C(O)CN1CCN(c2ccc(Nc3nc(N4CCCCCC4)nc4cn[nH]c(=O)c34)cc2)CC1
< 50 nM | < 50 nM | N#CCC1CCN(c2nc(Nc3ccc(N4CCCC(O)C4)nc3)c3c(=O)[nH]ncc3n2)CC1 (stereo unspecified)
